Experiments:
[1] = tested on: NRF2; conditions: colon cancer cell line, versus shorter or longer chain derivatives; literature; cited from earlier work
[2] = tested on: Nfe2l2; assay: Relative gene expression of Nfe2l2 in BMCs (qRT-PCR); assay type: cell-based, mouse; conditions: 2 μM, 4 h
From the text: Primary bone marrow cells (BMCs) were isolated from 8–12-week-old male C57BL/6 mice (25–30 g, AnLab, Czech Republic). Mice were housed under standard conditions. BMCs were isolated as follows: The day before isolation, phosphate-buffered saline (PBS), ACK Lysis Buffer (A10492-01, Thermo Fisher Scientific), and Iscove’s Modified Dulbecco’s Medium (IMDM) (12440-053, Thermo Fisher Scientific) were placed in a hypoxic chamber (InvivO2 400, Baker Ruskinn, UK) with adjustable oxygen control to equilibrate for the target oxygen concentrations. On the day of the experiment, animals were euthanized using ketamine/xylazine, and bilateral femurs were extracted. […] After hemolysis at room temperature using hypoxic ACK Lysis Buffer, nucleated BMCs were washed with hypoxic PBS + 2% FBS and counted using a TC20 automated cell counter (Bio-Rad). […]
3 Expression of NRF2 and its target genes in response to NO2FA derivatives. BMCs were cultured under 4% or 1% oxygen conditions and treated for 4 h with the tested NO 2 FAs (2 μM) or medium followed by quantification of (A) Nfe2l2, (B) Hmox1, and (C) Gclm with PCR. […] Data are expressed as mean ± SD from 3 to 7 independent experiments (n = 3–7), analyzed with one-way ANOVA with Dunnett’s multiple comparisons test compared to the controls (*p < 0.05; **p < 0.01; ***p < 0.001).

[3] = tested on: NRF2; conditions: comparison of positional isomers; literature; cited from earlier work
[4] = tested on: NRF2; assay: Immunocytochemistry of NRF2 in BMCs; assay type: cell-based, mouse; conditions: 1 h, 1% oxygen
Description: BMCs (2 × 10^6 cells in 300 μL of complete medium) were incubated with 10-NO 2 OA or control medium for 1 h in a 1% oxygen incubator. Cells were then washed with PBS, resuspended in fresh PBS, and plated on an 8-well μ-slide (ibidi, Germany). After allowing cells to settle (10 min), PBS was aspirated, and cells were fixed with 4% paraformaldehyde for 10 min. From this step onward, all work was performed under atmospheric conditions. Cells were washed twice, permeabilized with 0.1% Triton X-100, washed again, and blocked with 1% BSA/PBS. Samples were incubated with primary anti-NRF2 antibody (1:100, SAB4501384, Millipore) overnight at 4 °C. After washing, a secondary Alexa Fluor 647 antibody (1:100, A31573, Invitrogen) was added for 1 h at room temperature in the dark. After washes, nuclei were stained with DAPI (0.5 μg/mL, Merck) for 10 min at room temperature in the dark, washed, and mounted on a microscope slide. Images were acquired with an Olympus FV10i (Olympus, Japan) scanning microscope and analyzed using ImageJ v1.52 (NIH).
5 Subcellular localization of NRF2. NO 2 FA derivatives promote nuclear translocation of NRF2 in mouse BMCs. BMCs were cultured under 1% oxygen conditions and treated for 1 h with 2 μM of 10-NO 2 OA, 10-NO 2 LA, or 10-NO 2 SA. […] Data are expressed as mean ± SD from two independent experiments (n = 2). […]

[5] = tested on: Gclm and Hmox1; design: method as in Khoo et al.; conditions: compared to other derivatives; ref Khoo et al.; cited from earlier work

## CCCCCCCC/C=C(\CCCCCCCC(=O)O)[N+](=O)[O-] [9-NO2OA, (9E)-9-Nitro-oleic Acid]
[1]
  NRF2 induction: induced NRF2 more robustly
[2]; 4% oxygen
  Nfe2l2 relative expression: significantly increased
[3]
  NRF2 activation (ARE-reporter luciferase): preferentially activated NRF2 over 10-NO 2 OA

## CCCCCCCC/C(=C\CCCCCCCC(=O)O)[N+](=O)[O-] [10-NO2OA, (9E)-10-Nitro-oleic Acid]
[4]
  colocalization of NRF2 with the nucleus: increased colocalization
[5]
  expression of Gclm and Hmox1: induced a higher expression

## CCCCCCCCC(CCCCCCCCC(=O)O)[N+](=O)[O-] (stereo not drawn) [10-NO2SA, 10-Nitro Stearic acid]
[2]; 4% and 1% oxygen
  Nfe2l2 relative expression: no effects

Reference: PMC12169669, “Regio- and Stereoselective Synthesis of Nitro-fatty Acids as NRF2 Pathway Activators Working under Ambient or Hypoxic Conditions” (Journal of Medicinal Chemistry, 2025)
